In one test the target is KRAS WT (Homo sapiens (Human), UniProt P01116). The test can be described thus: KRAS WT Biochemical Assay, BODIPY-GDP Exchange TR-FRET (Example 501; 3 nM KRAS WT, 3 nM SOS1, 60-minute incubation). The conditions noted are these: read-out: KRas HTRF IC50. The procedure, abridged:
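SOS1-mediated exchange assay: 3 nM biotin-KRAS WT with terbium-streptavidin, started with 3 nM SOS1 and 300 nM BODIPY-GDP, HEPES pH 7.5 with MgCl2. TR-FRET (520/490 nm) read after 60 min; normalized to DMSO and full-inhibition control, IC50 from 4-parameter Hill fit.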

The next test deals with KRAS G12D (Homo sapiens (Human), UniProt P01116, G12D). The test can be described thus: KRAS G12D LoEnz Biochemical Assay, BODIPY-GDP Exchange TR-FRET (SOS1-mediated nucleotide exchange). The conditions noted are these: read-out: KRas (G12D) GDP HTRF IC50.
KRAS G12D, sequence (P01116-2 other isoform, or with tags, fused parts or gaps G12D): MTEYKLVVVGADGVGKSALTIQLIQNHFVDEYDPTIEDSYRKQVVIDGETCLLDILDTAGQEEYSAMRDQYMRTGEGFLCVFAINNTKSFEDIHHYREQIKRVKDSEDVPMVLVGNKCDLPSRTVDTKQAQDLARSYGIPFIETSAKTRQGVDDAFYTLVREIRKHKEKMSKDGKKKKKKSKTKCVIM

KRAS WT, sequence (P01116-2 other isoform, or with tags, fused parts or gaps): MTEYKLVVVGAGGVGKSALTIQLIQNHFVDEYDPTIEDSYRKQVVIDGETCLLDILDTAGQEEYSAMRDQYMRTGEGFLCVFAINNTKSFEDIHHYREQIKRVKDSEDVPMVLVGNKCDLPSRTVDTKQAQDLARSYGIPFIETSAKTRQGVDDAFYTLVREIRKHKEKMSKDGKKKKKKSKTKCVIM

Consider `Cc1cc(N)c(F)c(-c2nc3c4c(nc(OC[C@@]56CCCN5CC5(CC5(F)F)C6)nc4c2F)N2C[C@H]4CC[C@H](N4)[C@H]2[C@H](C)O3)c1C(F)(F)F` (stereo partly drawn) [Compound 227, 3-((5S,5aS,6S,9R)-12-(((7a′S)-2,2-Difluorodihydro-1′H,3′H-spiro[cyclopropane-1,2′-pyrrolizin]-7a′(5′H)-yl)methoxy)-1-fluoro-5-methyl-5a,6,7,8,9,10-hexahydro-5H-4-oxa-3,10a,11,13,14-pentaaza[6,9]methanonaphtho[1,8-ab]heptalene-2-yl)-2-fluoro-5-methyl-4-(trifluoromethyl)aniline], for which the IC50 at KRAS WT was 0.938 nM; at KRAS G12D it was 0.21 nM.

On to `Cc1c(F)c(N)c(F)c(-c2nc3c4c(nc(OC[C@@H]5C[C@@H](F)CN5C)nc4c2F)N2C[C@H]4CC[C@H](N4)[C@H]2[C@H](C)O3)c1C(F)(F)F` [Compound 228, 2,6-Difluoro-3-((5S,5aS,6S,9R)-1-fluoro-12-(((2S,4R)-4-fluoro-1-methylpyrrolidin-2-yl)methoxy)-5-methyl-5a,6,7,8,9,10-hexahydro-5H-4-oxa-3,10a,11,13,14-pentaaza-6,9-methanonaphtho[1,8-ab]heptalen-2-yl)-5-methyl-4-(trifluoromethyl)aniline], for which the IC50 at KRAS WT came to 4880 nM; at KRAS G12D it was 370 nM.

`Cc1c(F)c(N)c(F)c(-c2nc3c4c(nc(OC[C@@]56CCCN5C/C(=C\F)C6)nc4c2F)N2C[C@H]4CC[C@H](N4)[C@H]2[C@H](C)O3)c1C(F)(F)F` [Compound 229, 2,6-Difluoro-3-((5S,5aS,6S,9R)-1-fluoro-12-(((S,Z)-2-(fluoromethylene)tetrahydro-1H-pyrrolizin-7a(5H)-yl)methoxy)-5-methyl-5a,6,7,8,9,10-hexahydro-5H-4-oxa-3,10a,11,13,14-pentaaza-6,9-methanonaphtho[1,8-ab]heptalene-2-yl)-5-methyl-4-(trifluoromethyl)aniline]: the results for the IC50 at KRAS WT and at KRAS G12D were 12 nM and 0.36 nM, respectively.

In the case of `Cc1cc(N)cc(-c2nc3c4c(nc(OC[C@@H]5CC[C@H]6COCCN65)nc4c2F)N2C[C@H]4CC[C@H](N4)[C@H]2[C@H](C)O3)c1CC(F)F` [Compound 230, 4-(2,2-Difluoroethyl)-3-((5S,5aS,6S,9R)-1-fluoro-12-(((6S,8aS)-hexahydro-1H-pyrrolo[2,1-c][1,4]oxazin-6-yl)methoxy)-5-methyl-5a,6,7,8,9,10-hexahydro-5H-4-oxa-3,10a,11,13,14-pentaaza-6,9-methanonaphtho[1,8-ab]heptalen-2-yl)-5-methylaniline], the IC50 at KRAS WT came out at 213 nM; at KRAS G12D it was 1.13 nM.

For `Cc1cc(N)c(F)c(-c2nc3c4c(nc(OC[C@@H]5CC[C@H]6COCCN65)nc4c2F)N2C[C@H]4CC[C@H](N4)[C@H]2[C@H](C)O3)c1CC(F)F` [Compound 231, 4-(2,2-Difluoroethyl)-2-fluoro-3-((5S,5aS,6S,9R)-1-fluoro-12-(((6S,8aS)-hexahydro-1H-pyrrolo[2,1-c][1,4]oxazin-6-yl)methoxy)-5-methyl-5a,6,7,8,9,10-hexahydro-5H-4-oxa-3,10a,11,13,14-pentaaza-6,9-methanonaphtho[1,8-ab]heptalen-2-yl)-5-methylaniline], the IC50 on KRAS WT came to 1240 nM; on KRAS G12D, 4.6 nM.

Regarding `CCc1c(F)c(N)cc(-c2nc3c4c(nc(OC[C@@H]5CC[C@H]6COCCN65)nc4c2F)N2C[C@H]4CC[C@H](N4)[C@H]2[C@H](C)O3)c1C(F)(F)F` [Compound 232, 3-Ethyl-2-fluoro-5-((5S,5aS,6S,9R)-1-fluoro-12-(((6S,8aS)-hexahydro-1H-pyrrolo[2,1-c][1,4]oxazin-6-yl)methoxy)-5-methyl-5a,6,7,8,9,10-hexahydro-5H-4-oxa-3,10a,11,13,14-pentaaza-6,9-methanonaphtho[1,8-ab]heptalen-2-yl)-4-(trifluoromethyl)aniline], the IC50 on KRAS WT came out at 277 nM; at KRAS G12D it was 2.86 nM.

Consider `Cc1c(F)c(N)cc(-c2nc3c4c(nc(OC[C@@]56CCCN5C[C@H](F)C6)nc4c2F)N2C[C@H]4CC[C@H](NC4)[C@H]2CO3)c1C(F)(F)F` [Compound 236, 2-Fluoro-5-((5aS,6S,9S)-1-fluoro-12-(((2R,7aS)-2-fluorotetrahydro-1H-pyrrolizin-7a(5H)-yl)methoxy)-5a,6,7,8,9,10-hexahydro-5H-4-oxa-3,10a,11,13,15-pentaaza-6,9-ethanonaphtho[1,8-ab]heptalene-2-yl)-3-methyl-4-(trifluoromethyl)aniline], for which the IC50 came out at 830 nM at KRAS WT and 68 nM on KRAS G12D.

With `Cc1c(F)c(N)cc(-c2nc3c4c(nc(OC[C@@]56CCCN5C[C@H](F)C6)nc4c2F)N2C[C@H]4CC[C@H](N4)[C@H]2C(CF)O3)c1C(F)(F)F` (stereo partly drawn) [Compound 239, 2-Fluoro-5-((5aS,6S,9R)-1-fluoro-5-(fluoromethyl)-12-(((2R,7aS)-2-fluorotetrahydro-1H-pyrrolizin-7a(5H)-yl)methoxy)-5a,6,7,8,9,10-hexahydro-5H-4-oxa-3,10a,11,13,14-pentaaza-6,9-methanonaphtho[1,8-ab]heptalen-2-yl)-3-methyl-4-(trifluoromethyl)aniline], the values for the half-maximal inhibitory concentration (IC50) at KRAS WT and on KRAS G12D were 0.94 nM and 0.58 nM, respectively.

As to `Cc1c(Cl)c(N)cc(-c2nc3c4c(nc(OC[C@@]56CCCN5C[C@H](F)C6)nc4c2Cl)N2C[C@H]4CC[C@H](N4)[C@H]2[C@H](C)O3)c1C(F)(F)F` [Compound 241, 2-Chloro-5-((5S,5aS,6S,9R)-1-chloro-12-(((2R,7aS)-2-fluorotetrahydro-1H-pyrrolizin-7a(5H)-yl)methoxy)-5-methyl-5a,6,7,8,9,10-hexahydro-5H-4-oxa-3,10a,11,13,14-pentaaza-6,9-methanonaphtho[1,8-ab]heptalen-2-yl)-3-methyl-4-(trifluoromethyl)aniline], the IC50 on KRAS WT was determined as 15.4 nM; at KRAS G12D it was 0.13 nM.

Turning to `Cc1nc(N)cc(-c2nc3c4c(nc(OC[C@@]56CCCN5C[C@H](F)C6)nc4c2F)N2C[C@H]4CC[C@H](N4)[C@H]2[C@H](C(F)(F)F)O3)c1C(F)(F)F` [Compound 242, 4-((5R,5aS,6S,9R)-1-Fluoro-12-(((2R,7aS)-2-fluorotetrahydro-1H-pyrrolizin-7a(5H)-yl)methoxy)-5-(trifluoromethyl)-5a,6,7,8,9,10-hexahydro-5H-4-oxa-3,10a,11,13,14-pentaaza-6,9-methanonaphtho[1,8-ab]heptalen-2-yl)-6-methyl-5-(trifluoromethyl)pyridin-2-amine], the values for the IC50 on KRAS WT and at KRAS G12D were 5.29 nM and 0.33 nM, respectively.

For the molecule `Cc1c(F)c(N)cc(-c2nc3c4c(nc(OC[C@@H]5CC[C@H]6COCCN65)nc4c2F)N2C[C@H]4CC[C@H](N4)[C@H]2[C@H](C(F)(F)F)O3)c1C(F)(F)F` [Compound 245, 2-Fluoro-5-((5R,5aS,6S,9R)-1-fluoro-12-(((6S,8aS)-hexahydro-1H-pyrrolo[2,1-c][1,4]oxazin-6-yl)methoxy)-5-(trifluoromethyl)-5a,6,7,8,9,10-hexahydro-5H-4-oxa-3,10a,11,13,14-pentaaza-6,9-methanonaphtho[1,8-ab]heptalene-2-yl)-3-methyl-4-(trifluoromethyl)aniline], the values for the IC50 at KRAS WT and at KRAS G12D were 7.44 nM and 0.249 nM, respectively.

Turning to `Cc1c(F)c(N)cc(-c2nc3c4c(nc(OC[C@@]56CCCN5C[C@H](F)C6)nc4c2F)N2C[C@H]4CC[C@H](N4)[C@H]2[C@H](C(F)(F)F)O3)c1C(F)(F)F` [Compound 247, 2-Fluoro-5-((5R,5aS,6S,9R)-1-fluoro-12-(((2R,7aS)-2-fluorotetrahydro-1H-pyrrolizin-7a(5H)-yl)methoxy)-5-(trifluoromethyl)-5a,6,7,8,9,10-hexahydro-5H-4-oxa-3,10a,11,13,14-pentaaza-6,9-methanonaphtho[1,8-ab]heptalene-2-yl)-3-methyl-4-(trifluoromethyl)aniline], the half-inhibitory concentration (IC50) on KRAS WT turned out to be 0.959 nM; on KRAS G12D, 0.21 nM.

For the molecule `Cc1c(F)c(N)cc(-c2nc3c4c(nc(OC[C@@]56CCCN5C[C@H](F)C6)nc4c2F)N2C[C@H]4CC[C@H](N4)[C@@H]2[C@@H](C(F)(F)F)O3)c1C(F)(F)F` [Compound 248, 2-Fluoro-5-((5S,5aR,6S,9R)-1-fluoro-12-(((2R,7aS)-2-fluorotetrahydro-1H-pyrrolizin-7a(5H)-yl)methoxy)-5-(trifluoromethyl)-5a,6,7,8,9,10-hexahydro-5H-4-oxa-3,10a,11,13,14-pentaaza-6,9-methanonaphtho[1,8-ab]heptalene-2-yl)-3-methyl-4-(trifluoromethyl)aniline], the IC50 on KRAS WT worked out at 0.522 nM; at KRAS G12D, 1.1 nM.

Regarding `Cc1c(F)c(N)cc(-c2nc3c4c(nc(OCC5(CN6CCOCC6)CC5)nc4c2F)N2C[C@H]4CC[C@H](N4)[C@H]2[C@H](C(F)(F)F)O3)c1C(F)(F)F` [Compound 249, 2-Fluoro-5-((5R,5aS,6S,9R)-1-fluoro-12-((1-(morpholinomethyl)cyclopropyl)methoxy)-5-(trifluoromethyl)-5a,6,7,8,9,10-hexahydro-5H-4-oxa-3,10a,11,13,14-pentaaza-6,9-methanonaphtho[1,8-ab]heptalene-2-yl)-3-methyl-4-(trifluoromethyl)aniline], the IC50 stood at 1.37 nM on KRAS WT and 0.22 nM on KRAS G12D.

As for `Cc1c(F)c(N)cc(-c2nc3c4c(nc(OC[C@@]56CCCN5C[C@H](F)C6)nc4c2F)N2C[C@H]4CC[C@H](N4)[C@H]2[C@H](C(F)(F)F)O3)c1CC(F)F` [Compound 250, 4-(2,2-Difluoroethyl)-2-fluoro-5-((5R,5aS,6S,9R)-1-fluoro-12-(((2R,7aS)-2-fluorotetrahydro-1H-pyrrolizin-7a(5H)-yl)methoxy)-5-(trifluoromethyl)-5a,6,7,8,9,10-hexahydro-5H-4-oxa-3,10a,11,13,14-pentaaza-6,9-methanonaphtho[1,8-ab]heptalene-2-yl)-3-methylaniline], the IC50 was 13.6 nM on KRAS WT and 0.39 nM on KRAS G12D.

For the origin of these results see patent US20240025919A1, “AZA-TETRACYCLIC OXAZEPINE COMPOUNDS AND USES THEREOF” (Genentech, Inc., priority 2022, published 2024).
